{"source": "patent US20030083374A1", "about": "“NAALADase inhibitors useful as pharmaceutical compounds and compositions” (priority 1998, published 2003)", "key": {"[1]": {"system": "Dorsal root ganglia-Schwann cell co-cultures", "assay": "in vitro myelination in dorsal root ganglia-Schwann cell co-cultures", "format": "cell-based", "text": "The inventors hypothesized that NAALADase may play a role in signaling myelin formation and inhibition of NAALADase may facilitate myelination. To test this hypothesis, the inventors examined the effects of several NAALADase inhibitors in a well established in vitro model system of myelination. Dorsal root ganglia-Schwann cell co-cultures were established as previously described (Einheber et al., J. Cell. Biol., Vol. 123, p. 1223). Following 7 days in co-culture, myelination was initiated following the addition of serum and ascorbic acid with various doses of NAALADase inhibitors (1 nM to 10 μM) or progesterone (20 nM; positive control). The extent of myelination was examined between days 14-21 using immunocytochemical staining for myelin basic protein (MBP), a known myelin marker."}, "[2]": {"system": "cocaine-induced sensitization", "assay": "in vivo behavioral sensitization to cocaine", "parameters": "species or system Male Sprague-Dawley rats", "protocol": "NAALADase hydrolyzes the abundant neuropeptide NAAG to liberate glutamate (GLU). The inventors hypothesized that inhibition of NAALADase could attenuate sensitization by preventing this source of GLU. […] Male Sprague-Dawley rats received home cage injections of cocaine (20 mg/kg/day×5 days; i.p.) or sale (1.0 ml/kg). […] Cocaine (20 mg/kg)-induced locomotor activity was assessed 3 days later. […]"}, "LNCaP tumors [3]": {"system": "LNCaP tumors", "assay": "in vivo cancer assay, LNCaP model, subcutaneous drug delivery", "parameters": "species or system Ncr nude male mice", "protocol": "Ncr nude male mice, age 5 to 6 weeks, were injected in the right flank with 5×10^6 LNCaP cells in Matrigel™ (0.1 ml total injection volume). […] Controls received 50 mM HEPES s.c. daily. Once tumors were palpable they were measured twice a week.\n(§1) Response to treatment was monitored in two ways. First, mean tumor volume for each group was presented as tumor:control ratio (% T/C) and these values were compared at one point in time. Second, tumor volume versus time was monitored."}, "Dunning G tumors": {"system": "Dunning G tumors", "assay": "in vivo cancer assay, Dunning G model, subcutaneous drug delivery", "parameters": "species or system Male Copenhagen syngenic rats", "protocol": "Male Copenhagen syngenic rats, age 8 to 10 weeks, were injected in both flanks with 10^7 Dunning G cells. […] Controls received 50 mM HEPES s.c. daily. Tumors were measured twice a week.\nas §1"}, "LNCaP tumors [4]": {"system": "LNCaP tumors", "assay": "in vivo cancer assay, LNCaP model, intratumoral drug delivery", "parameters": "species or system Ncr nude male mice", "protocol": "Ncr nude male mice, age 5 to 6 weeks, were injected in the right flank with 10^7 LNCaP cells in Matrigel™ (0.1 ml total injection volume). When the tumors reached a predetermined size (50 to 60 mm^3) mice.were randomly placed into treatment groups of 6 to 8 mice each. […] Controls received 50 μl of 50 mM HEPES intratumorally daily. Tumors were measured twice a week.\nas §1"}, "[5]": {"system": "angiogenesis in Matrigel plugs", "assay": "in vivo assay of daily dosages on angiogenesis (Matrigel plug, bFGF)", "parameters": "species or system C57B1 female mice", "settings": "3 mg/kg and 30 mg/kg daily s.c., seven days", "protocol": "The injected Matrigel™ rapidly formed a gel. On the same a day as the Matrigel™ injection, daily subcutaneous injections of Compound 3 around the Matrigel™ plug were initiated. Seven days post Matrigel™ injection, Matrigel™ plugs were excised and histology was performed.\nThe concentrations of the daily dosages as well as the coinciding initial Matrigel™ plug compositions are provided below in TABLE VI."}, "[6]": {"system": "angiogenesis in the Matrigel/bFGF gels", "assay": "in vivo assay of a continuous dosage on angiogenesis (minipump, Matrigel/bFGF)", "parameters": "species or system C57B1 female mice", "protocol": "Minipumps filled with vehicle (50 mM Hepes) were also implanted at this time. Twenty-four hours later, mice were each injected subcutaneously with 0.5 mL Matrigel™ and the 150 ng/mL of the angiogenic factor, basic FGF (bFGF). Thirteen days post Matrigel™/bFGF injection, the gels were recovered, fixed in formalin and sections were stained with Trichrome-Masson stain."}, "[7]": {"system": "formalin-induced flinching behavior", "assay": "formalin model of pain", "format": "in vivo, rats", "settings": "50 mg/kg i.p. daily for 7 days", "text": "(§2) One source of neuronal glutamate is thought to derive from the abundant neuropeptide NAAG which is hydrolyzed by NAALADase to liberate free glutamate. The inventors hypothesized that inhibition of NAALADase could limit pain by preventing this source of glutamate. To test this hypothesis, the inventors examined the possible antinocipetive effects of several NAALADase inhibitors in the formalin-, acetic acid- and chronic constrictive injury (CCI; “Bennett model”) models of pain. […] On day 7, 5% formalin was injected into the dorsum of the rat's hindpaw."}, "[8]": {"system": "acetic acid (0.6%) induced writhing", "assay": "acetic acid model of pain (writhing)", "format": "in vivo, mice", "settings": "pretreated", "text": "as §2"}, "[9]": {"system": "hyperalgesia following sciatic nerve constriction", "assay": "chronic constrictive injury (CCI) model of pain", "format": "in vivo, rats", "text": "as §2\nSciatic nerve ligation, consisting of 4 ligatures being tied loosely around the sciatic nerve at 1 mm intervals proximal to the nerve trifurcation, was performed on rats. […] Animals were habituated to the Hargreaves apparatus and the infrared heat source directed onto the […] surface of the hindpaw and the time taken for the animal to withdraw its paw noted. The difference score (between the latency of the response for the paw on the operated side versus the control side) was determined. […] Normal (unoperated) rats had approximately equal latencies for both paws. This effect was significant starting at 11 days of drug treatment and persisted through to the end of the study (for 21 days of daily dosing)."}, "[10]": {"system": "stroke-induced extracellular glutamate increases", "settings": "rats; cited from earlier work"}, "[11]": {"system": "cryolesion of the sciatic nerve", "settings": "sciatic nerves in mice; cited from earlier work"}, "MPTP lesioned mice": {"system": "MPTP lesioned mice", "settings": "cited from earlier work"}, "[12]": {"system": "dynorphin-induced spinal cord injury", "settings": "co-administered with dynorphin A; by 24-hour post-injection; cited from earlier work"}, "[13]": {"system": "spinal cord organotypic cultures", "settings": "cited from earlier work"}, "LNCaP cells": {"system": "LNCaP cells", "settings": "as the concentration increased; cited from earlier work"}, "alcohol-preferring rats": {"system": "alcohol-preferring rats", "settings": "rat, in vivo; cited from earlier work"}, "[14]": {"system": "nicotine self-administration in rats", "settings": "rat, in vivo; cited from earlier work"}, "[15]": {"settings": "50 mg/kg i.p. daily starting 10 days after surgery, day 18"}}}
{"smiles": "O=C(O)CCC(CP(=O)(O)O)C(=O)O", "note": "(centres unmarked) [Compound 3, 2-(phosphonomethyl)-pentanedioic acid]", "values": [{"measurement": "immunostaining of MBP", "setting": "[1]; 1 nM, two week treatment", "result": "significant increase"}, {"measurement": "extent of myelination vs. maximal doses of ascorbic acid and progesterone", "setting": "[1]; high dose, 1 μM", "result": "greater extent of myelination"}, {"measurement": "enhancement of cocaine (20 mg/kg)-induced locomotor activity (sensitization)", "setting": "[2]; 10 and 50 mg/kg, 15 minutes prior to cocaine injections x 5 days, assessed 3 days later", "result": "significantly reduced"}, {"measurement": "basal locomotor activity or the response to saline", "setting": "[2]; Compound 3 on its own", "result": "did not alter"}, {"measurement": "tumor growth, % of controls", "setting": "LNCaP tumors [3]; 10 mg/kg s.c. daily, day 86", "result": 24, "unit": "%"}, {"measurement": "effect on tumor growth", "setting": "LNCaP tumors [3]; 1, 3 and 30 mg/kg s.c. daily", "result": "no effect on tumor growth"}, {"measurement": "tumor size, % of controls", "setting": "Dunning G tumors; 10 mg/kg s.c. daily", "result": 38, "unit": "%"}, {"measurement": "tumor size, % of controls", "setting": "Dunning G tumors; 30 mg/kg s.c. daily", "result": 22, "unit": "%"}, {"measurement": "effect on tumor growth", "setting": "Dunning G tumors; 1 and 3 mg/kg s.c. daily", "result": "no effect on tumor growth"}, {"measurement": "Tumor volume", "setting": "LNCaP tumors [4]; after 42 days of treatment, intratumoral 0.025 μg/day", "result": "465.7±176", "unit": "mm^3"}, {"measurement": "Optimal % T/C", "setting": "LNCaP tumors [4]; intratumoral 0.025 μg/day", "result": 42, "unit": "%"}, {"measurement": "Regressions", "setting": "LNCaP tumors [4]; intratumoral 0.025 μg/day", "result": "1/7"}, {"measurement": "Optimal % T/C", "setting": "LNCaP tumors [4]; intratumoral 0.25 μg/day", "result": 51, "unit": "%"}, {"measurement": "Regressions", "setting": "LNCaP tumors [4]; intratumoral 0.25 μg/day", "result": "1/7"}, {"measurement": "Optimal % T/C", "setting": "LNCaP tumors [4]; intratumoral 2.5 μg/day", "result": 45, "unit": "%"}, {"measurement": "Regressions", "setting": "LNCaP tumors [4]; intratumoral 2.5 μg/day", "result": "0/7"}, {"measurement": "Optimal % T/C", "setting": "LNCaP tumors [4]; intratumoral 25.0 μg/day", "result": 76, "unit": "%"}, {"measurement": "Regressions", "setting": "LNCaP tumors [4]; intratumoral 25.0 μg/day", "result": "0/7"}, {"measurement": "tumor growth", "setting": "LNCaP tumors [4]; intratumoral 0.025, 0.25 and 2.5 μg/day", "result": "slowed tumor growth substantially"}, {"measurement": "blood vessels or angiogenesis in the Matrigel plugs", "setting": "[5]", "result": "decrease in blood vessels or angiogenesis"}, {"measurement": "angiogenic response", "setting": "[6]; 1 μg/day by minipump", "result": "strong angiogenic response"}, {"measurement": "angiogenesis in the Matrigel/bFGF gels", "setting": "[6]; 10 μg/day and 100 μg/day by minipump", "result": "significantly decreased angiogenesis"}, {"measurement": "effect compared with acute pretreatment with morphine (5 mg/kg)", "setting": "[7]", "result": "more robust"}, {"measurement": "flinching behavior, early phase", "setting": "[7]; 5% formalin on day 7", "result": "2.5±3"}, {"measurement": "flinching behavior, late phase", "setting": "[7]; 5% formalin on day 7", "result": "0.5±0.58"}, {"measurement": "acetic acid (0.6%) induced writhing vs. vehicle control", "setting": "[8]", "result": "significantly attenuated"}, {"measurement": "difference scores (thermal pain response)", "setting": "[9]; [15]", "result": "−0.2±1.9"}, {"measurement": "pain attenuation vs. operated vehicle group", "setting": "[9]; [15]", "result": 98, "unit": "%"}, {"measurement": "difference scores between the two paws vs. vehicle-treated controls", "setting": "[9]; 50 mg/kg i.p. daily starting 10 days post surgery, significant starting at 11 days, through 21 days of dosing", "result": "dramatically normalized"}, {"measurement": "concurrent glutamate changes in the parietal cortex", "setting": "[10]", "result": "completely prevented"}, {"measurement": "stroke-induced extracellular glutamate increases in the striatum", "setting": "[10]", "result": "significantly attenuated"}, {"measurement": "myelin thickness", "setting": "[11]", "result": "increase"}, {"measurement": "myelinated axon number", "setting": "[11]", "result": "increase"}, {"measurement": "TH-stained dopaminergic neurons", "setting": "MPTP lesioned mice", "result": "significant recovery"}, {"measurement": "motor scores", "setting": "[12]", "result": "significant improvement"}, {"measurement": "protection against THA-induced toxicity", "setting": "[13]", "result": "dose-dependent protection"}, {"measurement": "LNCaP cell proliferation", "setting": "LNCaP cells", "result": "decreased significantly"}, {"measurement": "body weights or 24 hour water intakes", "setting": "alcohol-preferring rats", "result": "without affecting"}, {"measurement": "ethanol consumption", "setting": "alcohol-preferring rats", "result": "significantly reduced"}, {"measurement": "cumulative food intakes", "setting": "[14]", "result": "reduced"}, {"measurement": "nicotine self-administration", "setting": "[14]", "result": "reduced"}]}
